Assays:
Format in all cases: in vivo
[1] = tested on: Erysiphe graminis f. sp. tritici; assay: Test A: preventive spray on wheat seedlings, wheat powdery mildew, disease rating; details: wheat seedlings sprayed to run-off, inoculated the following day with Erysiphe graminis f. sp. tritici, rated after 7 days at 20° C.; test concentration not given
Excerpt: General protocol for preparing test suspensions: Test compounds were first dissolved in acetone in an amount equal to 3% of the final volume and then suspended at the desired concentration (in ppm) in acetone and purified water (50/50 mix) containing 250 ppm of the surfactant Trem® 014 (polyhydric alcohol esters). The resulting test suspensions were then used in the following tests. Spraying a 200 ppm test suspension to the point of run-off on the test plants was the equivalent of a rate of 500 g/ha. The test suspension was sprayed to the point of run-off on wheat seedlings. The following day the seedlings were inoculated with a spore dust of Erysiphe graminis f. sp. tritici, (the causal agent of wheat powdery mildew) and incubated in a growth chamber at 20° C. for 7 days, after which disease ratings were made. Results for Tests A-C are given in Table A. In the table, a rating of 100 indicates 100% disease control and a rating of 0 indicates no disease control (relative to the controls). A dash (-) indicates no test results.

[2] = tested on: Puccinia recondita; assay: Test B: preventive spray on wheat seedlings, wheat leaf rust, disease rating; details: wheat seedlings sprayed to run-off, inoculated the following day with Puccinia recondita, 24 h saturated atmosphere then 6 days at 20° C.; test concentration not given
Excerpt: (§1) General protocol for preparing test suspensions: Test compounds were first dissolved in acetone in an amount equal to 3% of the final volume and then suspended at the desired concentration (in ppm) in acetone and purified water (50/50 mix) containing 250 ppm of the surfactant Trem® 014 (polyhydric alcohol esters). The resulting test suspensions were then used in the following tests. Spraying a 200 ppm test suspension to the point of run-off on the test plants was the equivalent of a rate of 500 g/ha. The test suspension was sprayed to the point of run-off on wheat seedlings. The following day the seedlings were inoculated with a spore suspension of Puccinia recondita (the causal agent of wheat leaf rust) and incubated in a saturated atmosphere at 20° C. for 24 h, and then moved to a growth chamber at 20° C. for 6 days, after which disease ratings were made. Results for Tests A-C are given in Table A. In the table, a rating of 100 indicates 100% disease control and a rating of 0 indicates no disease control (relative to the controls). A dash (-) indicates no test results.

[3] = tested on: Septoria nodorum; assay: Test C: preventive spray on wheat seedlings, Septoria glume blotch, disease rating; details: wheat seedlings sprayed to run-off, inoculated the following day with Septoria nodorum, 48 h saturated atmosphere then 9 days at 20° C.; test concentration not given
Excerpt: as §1, with “Septoria nodorum” for “Puccinia recondita”, “Septoria glume blotch)” for “wheat leaf rust)”, “48” for “24”, “9” for “6”

Compound: CCN(C)C=Nc1cc(Cl)c(OCCC[Si](C)(C)C)cc1C [compound 54]
- Test A disease control rating (100 = 100% disease control, 0 = no disease control relative to the controls) [1]: 100%
- Test B disease control rating (100 = 100% disease control, 0 = no disease control relative to the controls) [2]: 100%
- Test C disease control rating (100 = 100% disease control, 0 = no disease control relative to the controls) [3]: 100%

Compound: CN(C)C=Nc1cc(Cl)c(OCCC[Si](C)(C)C)c(Cl)c1Cl [compound 55]
- Test A disease control rating (100 = 100% disease control, 0 = no disease control relative to the controls) [1]: 0%
- Test B disease control rating (100 = 100% disease control, 0 = no disease control relative to the controls) [2]: 19%
- Test C disease control rating (100 = 100% disease control, 0 = no disease control relative to the controls) [3]: 0%

Compound: C=CCN(C)C=Nc1cc(Cl)c(OCCC[Si](C)(C)C)cc1C [compound 56]
- Test A disease control rating (100 = 100% disease control, 0 = no disease control relative to the controls) [1]: 100%
- Test B disease control rating (100 = 100% disease control, 0 = no disease control relative to the controls) [2]: 100%
- Test C disease control rating (100 = 100% disease control, 0 = no disease control relative to the controls) [3]: 100%

Compound: CCN(C)C=Nc1cc(Cl)c(OCCC[Si](C)(C)CC)cc1C [compound 57]
- Test A disease control rating (100 = 100% disease control, 0 = no disease control relative to the controls) [1]: 100%
- Test B disease control rating (100 = 100% disease control, 0 = no disease control relative to the controls) [2]: 100%
- Test C disease control rating (100 = 100% disease control, 0 = no disease control relative to the controls) [3]: 100%

Compound: CCCN(C)C=Nc1cc(Cl)c(OCCC[Si](C)(C)C)cc1C [compound 58]
- Test A disease control rating (100 = 100% disease control, 0 = no disease control relative to the controls) [1]: 100%
- Test B disease control rating (100 = 100% disease control, 0 = no disease control relative to the controls) [2]: 100%
- Test C disease control rating (100 = 100% disease control, 0 = no disease control relative to the controls) [3]: 100%

Compound: CCN(C)C=Nc1cc(F)c(OCCC[Si](C)(C)C)cc1C [compound 59]
- Test A disease control rating (100 = 100% disease control, 0 = no disease control relative to the controls) [1]: 100%
- Test B disease control rating (100 = 100% disease control, 0 = no disease control relative to the controls) [2]: 100%
- Test C disease control rating (100 = 100% disease control, 0 = no disease control relative to the controls) [3]: 100%

Compound: CCCN(C)C=Nc1cc(F)c(OCCC[Si](C)(C)C)cc1C [compound 60]
- Test A disease control rating (100 = 100% disease control, 0 = no disease control relative to the controls) [1]: 100%
- Test B disease control rating (100 = 100% disease control, 0 = no disease control relative to the controls) [2]: 100%
- Test C disease control rating (100 = 100% disease control, 0 = no disease control relative to the controls) [3]: 100%

Compound: Cc1cc(OCCC[Si](C)(C)C)c(Cl)cc1N=CN(C)C1CC1 [compound 61]
- Test A disease control rating (100 = 100% disease control, 0 = no disease control relative to the controls) [1]: 100%
- Test B disease control rating (100 = 100% disease control, 0 = no disease control relative to the controls) [2]: 100%
- Test C disease control rating (100 = 100% disease control, 0 = no disease control relative to the controls) [3]: 100%

Compound: CCCCN(C)C=Nc1cc(F)c(OCCC[Si](C)(C)C)cc1C [compound 62]
- Test A disease control rating (100 = 100% disease control, 0 = no disease control relative to the controls) [1]: 100%
- Test B disease control rating (100 = 100% disease control, 0 = no disease control relative to the controls) [2]: 100%
- Test C disease control rating (100 = 100% disease control, 0 = no disease control relative to the controls) [3]: 100%

Compound: Cc1cc(OCCC[Si](C)(C)C)c(F)cc1N=CN(C)C(C)C [compound 63]
- Test A disease control rating (100 = 100% disease control, 0 = no disease control relative to the controls) [1]: 100%
- Test B disease control rating (100 = 100% disease control, 0 = no disease control relative to the controls) [2]: 100%
- Test C disease control rating (100 = 100% disease control, 0 = no disease control relative to the controls) [3]: 100%

Compound: C=CCN(C)C=Nc1cc(F)c(OCCC[Si](C)(C)C)cc1C [compound 64]
- Test A disease control rating (100 = 100% disease control, 0 = no disease control relative to the controls) [1]: 100%
- Test B disease control rating (100 = 100% disease control, 0 = no disease control relative to the controls) [2]: 100%
- Test C disease control rating (100 = 100% disease control, 0 = no disease control relative to the controls) [3]: 100%

Compound: CC[Si](C)(C)CCCOc1cc(C)c(N=CN(C)C2CC2)cc1Cl [compound 65]
- Test A disease control rating (100 = 100% disease control, 0 = no disease control relative to the controls) [1]: 100%
- Test B disease control rating (100 = 100% disease control, 0 = no disease control relative to the controls) [2]: 100%
- Test C disease control rating (100 = 100% disease control, 0 = no disease control relative to the controls) [3]: 96%

Compound: CCCCN(C)C=Nc1cc(C(C)C)c(OCCC[Si](C)(C)C)cc1C [compound 73]
- Test A disease control rating (100 = 100% disease control, 0 = no disease control relative to the controls) [1]: 99%
- Test B disease control rating (100 = 100% disease control, 0 = no disease control relative to the controls) [2]: 61%
- Test C disease control rating (100 = 100% disease control, 0 = no disease control relative to the controls) [3]: 66%

Compound: Cc1cc(OCCC[Si](C)(C)C)c(C(C)C)cc1N=CN(C)C(C)C [compound 74]
- Test A disease control rating (100 = 100% disease control, 0 = no disease control relative to the controls) [1]: 100%
- Test B disease control rating (100 = 100% disease control, 0 = no disease control relative to the controls) [2]: 100%
- Test C disease control rating (100 = 100% disease control, 0 = no disease control relative to the controls) [3]: 100%

Compound: CCCN(C)C=Nc1cc(C(C)C)c(OCCC[Si](C)(C)C)cc1C [compound 75]
- Test A disease control rating (100 = 100% disease control, 0 = no disease control relative to the controls) [1]: 100%
- Test B disease control rating (100 = 100% disease control, 0 = no disease control relative to the controls) [2]: 100%
- Test C disease control rating (100 = 100% disease control, 0 = no disease control relative to the controls) [3]: 100%

Compound: CCN(C)C=Nc1cc(C(C)C)c(OCCC[Si](C)(C)C)cc1C [compound 76]
- Test A disease control rating (100 = 100% disease control, 0 = no disease control relative to the controls) [1]: 100%
- Test B disease control rating (100 = 100% disease control, 0 = no disease control relative to the controls) [2]: 100%
- Test C disease control rating (100 = 100% disease control, 0 = no disease control relative to the controls) [3]: 100%

Compound: CCN(C)C(=S)Nc1cc(C)c(OCCC[Si](C)(C)CC)cc1C [compound 77]
- Test A disease control rating (100 = 100% disease control, 0 = no disease control relative to the controls) [1]: 100%
- Test B disease control rating (100 = 100% disease control, 0 = no disease control relative to the controls) [2]: 100%
- Test C disease control rating (100 = 100% disease control, 0 = no disease control relative to the controls) [3]: 100%

Compound: CCCN(C)C(=S)Nc1cc(C)c(OCCC[Si](C)(C)CC)cc1C [compound 78]
- Test A disease control rating (100 = 100% disease control, 0 = no disease control relative to the controls) [1]: 0%
- Test B disease control rating (100 = 100% disease control, 0 = no disease control relative to the controls) [2]: 98%
- Test C disease control rating (100 = 100% disease control, 0 = no disease control relative to the controls) [3]: 100%

Compound: CCN(C)C(=S)Nc1cc(C)c(OCCC[Si](C)(CC)CC)cc1C [compound 79]
- Test A disease control rating (100 = 100% disease control, 0 = no disease control relative to the controls) [1]: 0%
- Test B disease control rating (100 = 100% disease control, 0 = no disease control relative to the controls) [2]: 99%
- Test C disease control rating (100 = 100% disease control, 0 = no disease control relative to the controls) [3]: 100%

Compound: C=CCN(C)C(=S)Nc1cc(Cl)c(OCCC[Si](C)(C)C)c(Cl)c1Cl [compound 83]
- Test A disease control rating (100 = 100% disease control, 0 = no disease control relative to the controls) [1]: 0%
- Test B disease control rating (100 = 100% disease control, 0 = no disease control relative to the controls) [2]: 9%
- Test C disease control rating (100 = 100% disease control, 0 = no disease control relative to the controls) [3]: 0%

Compound: CCN(C)C(=S)Nc1cc(Cl)c(OCCC[Si](C)(C)CC)cc1C [compound 84]
- Test A disease control rating (100 = 100% disease control, 0 = no disease control relative to the controls) [1]: 100%
- Test B disease control rating (100 = 100% disease control, 0 = no disease control relative to the controls) [2]: 100%
- Test C disease control rating (100 = 100% disease control, 0 = no disease control relative to the controls) [3]: 100%

Compound: C=CCN(C)C(=S)Nc1cc(Cl)c(OCCC[Si](C)(C)C)cc1C [compound 85]
- Test A disease control rating (100 = 100% disease control, 0 = no disease control relative to the controls) [1]: 100%
- Test B disease control rating (100 = 100% disease control, 0 = no disease control relative to the controls) [2]: 99%
- Test C disease control rating (100 = 100% disease control, 0 = no disease control relative to the controls) [3]: 100%

Compound: C=CCN(C)C(=S)Nc1cc(C)c(OCCC[Si](C)(C)C)cc1C [compound 86]
- Test A disease control rating (100 = 100% disease control, 0 = no disease control relative to the controls) [1]: 100%
- Test B disease control rating (100 = 100% disease control, 0 = no disease control relative to the controls) [2]: 99%
- Test C disease control rating (100 = 100% disease control, 0 = no disease control relative to the controls) [3]: 100%

Compound: CCCCN(C)C(=S)Nc1cc(C(C)C)c(OCCC[Si](C)(C)C)cc1C [compound 91]
- Test A disease control rating (100 = 100% disease control, 0 = no disease control relative to the controls) [1]: 0%
- Test B disease control rating (100 = 100% disease control, 0 = no disease control relative to the controls) [2]: 26%
- Test C disease control rating (100 = 100% disease control, 0 = no disease control relative to the controls) [3]: 0%

Compound: Cc1cc(OCCC[Si](C)(C)C)c(C(C)C)cc1NC(=S)N(C)C(C)C [compound 92]
- Test A disease control rating (100 = 100% disease control, 0 = no disease control relative to the controls) [1]: 100%
- Test B disease control rating (100 = 100% disease control, 0 = no disease control relative to the controls) [2]: 100%
- Test C disease control rating (100 = 100% disease control, 0 = no disease control relative to the controls) [3]: 100%

From US20050182025A1, “Amidinylphenyl compounds and their use as fungicides” (priority 2002, published 2005)
